Data reported in ChEMBL document CHEMBL1268942, “Novel selective anti-androgens with a diphenylpentane skeleton” (Bioorg Med Chem Lett, 2010).

Target: T1, Androgen receptor (Homo sapiens, UniProt P10275)
T1 sequence (P10275 whole entry): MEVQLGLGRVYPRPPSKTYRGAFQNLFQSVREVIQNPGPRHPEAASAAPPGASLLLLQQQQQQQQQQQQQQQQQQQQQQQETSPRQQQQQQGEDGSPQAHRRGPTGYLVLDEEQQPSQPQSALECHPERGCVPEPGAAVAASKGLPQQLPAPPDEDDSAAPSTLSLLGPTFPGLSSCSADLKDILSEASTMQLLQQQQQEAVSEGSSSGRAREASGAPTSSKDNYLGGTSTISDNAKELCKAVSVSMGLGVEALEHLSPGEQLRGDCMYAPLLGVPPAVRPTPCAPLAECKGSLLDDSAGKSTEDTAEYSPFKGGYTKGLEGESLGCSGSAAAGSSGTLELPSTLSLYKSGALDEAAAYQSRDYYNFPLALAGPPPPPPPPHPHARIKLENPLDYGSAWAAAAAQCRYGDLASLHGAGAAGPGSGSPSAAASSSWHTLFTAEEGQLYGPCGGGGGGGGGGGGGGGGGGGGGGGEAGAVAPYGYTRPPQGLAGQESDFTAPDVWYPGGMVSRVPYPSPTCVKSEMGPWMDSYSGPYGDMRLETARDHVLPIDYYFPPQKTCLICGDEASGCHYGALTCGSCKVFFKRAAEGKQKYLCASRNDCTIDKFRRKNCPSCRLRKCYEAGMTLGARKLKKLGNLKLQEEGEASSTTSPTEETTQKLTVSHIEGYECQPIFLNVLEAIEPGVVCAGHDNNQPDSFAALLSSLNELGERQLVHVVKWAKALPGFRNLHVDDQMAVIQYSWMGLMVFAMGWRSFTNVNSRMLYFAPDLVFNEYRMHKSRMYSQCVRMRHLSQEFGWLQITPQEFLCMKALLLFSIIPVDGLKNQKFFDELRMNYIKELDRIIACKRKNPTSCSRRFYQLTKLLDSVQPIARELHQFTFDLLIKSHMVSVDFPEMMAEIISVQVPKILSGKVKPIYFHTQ
Experiment: Binding affinity to androgen receptor
Conditions: not given

Row | Ki [nM] | Structure (SMILES)
1 | 1800 | CCC(CC)(c1ccc(OCC(=O)C(C)(C)C)c(C)c1)c1ccc(OC[C@@H](O)CO)c(C)c1
2 | 1100 | CCC(CC)(c1ccc(OC[C@@H](O)CO)c(C)c1)c1ccc(OC[C@@H](O)C(C)(C)C)c(C)c1
3 | 1100 | CCC(CC)(c1ccc(OC[C@H](O)CO)c(C)c1)c1ccc(OC[C@@H](O)C(C)(C)C)c(C)c1
4 | 1000 | CCC(CC)(c1ccc(OC[C@H](O)CO)c(C)c1)c1ccc(OC[C@H](O)C(C)(C)C)c(C)c1
5 | 1100 | CCC(CC)(c1ccc(OCC(=O)C(C)(C)C)c(C)c1)c1ccc(OC[C@H](O)CO)c(C)c1
6 | 1000 | CCC(CC)(c1ccc(OC[C@@H](O)CO)c(C)c1)c1ccc(OC[C@H](O)C(C)(C)C)c(C)c1

System: HL-60
Experiment: Selectivity index, ratio of EC50 for Vitamin-D activity at VDR receptor in human HL60 cells to EC50 for antiandrogen activity against androgen receptor in androgen-dependent mouse SC3 cells
Type: cell-based
Conditions: not given

Row | Structure (SMILES) | Ratio EC50
7 | CCC(CC)(c1ccc(OCC(O)C(C)(C)Cc2ccccc2)c(C)c1)c1ccc(OC[C@@H](O)CO)c(C)c1 (stereo partly drawn) | 6.5
8 | CCC(CC)(c1ccc(OCC(=O)C(C)(C)CCCc2ccccc2)c(C)c1)c1ccc(OC[C@@H](O)CO)c(C)c1 | > 3.1
9 | CCC(CC)(c1ccc(OCC(O)C23CC4CC(CC(C4)C2)C3)c(C)c1)c1ccc(OC[C@@H](O)CO)c(C)c1 (stereo partly drawn) | < 2.2
10 | CCC(CC)(c1ccc(OCC(O)C(C)(C)CCCc2ccccc2)c(C)c1)c1ccc(OC[C@@H](O)CO)c(C)c1 (stereo partly drawn) | 28
11 | CCC(CC)(c1ccc(OCC(=O)C(C)(C)Cc2ccccc2)c(C)c1)c1ccc(OC[C@@H](O)CO)c(C)c1 | < 2.1
12 | CCC(CC)(c1ccc(OCC(=O)C(C)(C)CCc2ccccc2)c(C)c1)c1ccc(OC[C@@H](O)CO)c(C)c1 | 21
13 | CCC(CC)(c1ccc(OCC(O)C(C)(C)CCc2ccccc2)c(C)c1)c1ccc(OC[C@@H](O)CO)c(C)c1 (stereo partly drawn) | 8.1

System: not listed separately
Experiment: Toxicity in androgen-dependent mouse SC3 cells at 30 uM
Type: cell-based
Conditions: sc-3, 30 µM

Row | Structure (SMILES) | Activity
14 | CCC(CC)(c1ccc(OCC(O)C23CC4CC(CC(C4)C2)C3)c(C)c1)c1ccc(OC[C@@H](O)CO)c(C)c1 (stereo partly drawn) | Toxic
15 | CCC(CC)(c1ccc(OCC(=O)C(C)(C)Cc2ccccc2)c(C)c1)c1ccc(OC[C@@H](O)CO)c(C)c1 | Toxic
16 | CCC(CC)(c1ccc(OC[C@@H](O)CO)c(C)c1)c1ccc(O[C@@H]2CN(Cc3ccccc3)C[C@@H]2O)c(C)c1 | Toxic
17 | CCC(CC)(c1ccc(OCC(O)C(C)(C)Cc2ccc3ccccc3c2)c(C)c1)c1ccc(OC[C@@H](O)CO)c(C)c1 (stereo partly drawn) | Toxic
18 | CCC(CC)(c1ccc(OCC(O)C(C)(C)CCCCc2ccccc2)c(C)c1)c1ccc(OC[C@@H](O)CO)c(C)c1 (stereo partly drawn) | Toxic
